Assay results published in PubChem BioAssay (NCI).
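A five-concentration, 48-hour dose response in 96-well plates underlies each endpoint, interpolated linearly between surrounding concentrations. GI50 is the concentration that inhibits growth by half. TGI denotes the concentration required for complete inhibition of growth.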

How the values were obtained:
Assay in all cases: NCI tumour cell line growth inhibition, 48 h
HL-60(TB) leukemia = system: HL-60(TB) leukemia
MDA-MB-231 breast = system: MDA-MB-231 breast
A549 NSCLC = system: A549 NSCLC
RXF 393 renal = system: RXF 393 renal
SF-268 CNS = system: SF-268 CNS
T-47D breast = system: T-47D breast
HOP-92 NSCLC = system: HOP-92 NSCLC
OVCAR-3 ovarian = system: OVCAR-3 ovarian
U251 CNS = system: U251 CNS
RPMI-8226 leukemia = system: RPMI-8226 leukemia
NCI-H226 lung = system: NCI-H226 lung
MCF7 breast = system: MCF7 breast
CCRF-CEM leukemia = system: CCRF-CEM leukemia
KM12 colon = system: KM12 colon
SNB-19 CNS = system: SNB-19 CNS
HOP-62 NSCLC = system: HOP-62 NSCLC
TK-10 renal = system: TK-10 renal
OVCAR-5 ovarian = system: OVCAR-5 ovarian
OVCAR-4 ovarian = system: OVCAR-4 ovarian
SF-539 CNS = system: SF-539 CNS
HT29 colon = system: HT29 colon
HCT-116 colon = system: HCT-116 colon
MALME-3M melanoma = system: MALME-3M melanoma
CAKI-1 renal = system: CAKI-1 renal
SF-295 CNS = system: SF-295 CNS
NCI/ADR-RES ovarian = system: NCI/ADR-RES ovarian
SN12C renal = system: SN12C renal
K-562 leukemia = system: K-562 leukemia

COc1ccc(C(O)c2cc3c(N)c(C(=O)Nc4ccccc4)sc3nc2C)cc1 (stereo not given)
GI50 (HL-60(TB) leukemia): 32.4 nM | TGI (HL-60(TB) leukemia): 459 nM | GI50 (MDA-MB-231 breast): 72.8 nM | TGI (MDA-MB-231 breast): 9630 nM | GI50 (A549 NSCLC): 62.8 nM | TGI (A549 NSCLC): > 100000 nM | GI50 (RXF 393 renal): 28.6 nM | TGI (RXF 393 renal): 911 nM | GI50 (SF-268 CNS): 174 nM | TGI (SF-268 CNS): > 70000 nM | GI50 (T-47D breast): 51.4 nM | TGI (T-47D breast): > 100000 nM | GI50 (HOP-92 NSCLC): 54.6 nM | TGI (HOP-92 NSCLC): 12100 nM | GI50 (OVCAR-3 ovarian): 32.1 nM | TGI (OVCAR-3 ovarian): 1270 nM | GI50 (U251 CNS): 42.5 nM | TGI (U251 CNS): 29700 nM | GI50 (RPMI-8226 leukemia): 41.6 nM | TGI (RPMI-8226 leukemia): > 100000 nM | GI50 (NCI-H226 lung): 57.9 nM | TGI (NCI-H226 lung): 1870 nM | GI50 (MCF7 breast): 34.5 nM | TGI (MCF7 breast): 19300 nM | GI50 (CCRF-CEM leukemia): 38.3 nM | TGI (CCRF-CEM leukemia): > 100000 nM | GI50 (KM12 colon): 40.3 nM | TGI (KM12 colon): > 100000 nM | GI50 (SNB-19 CNS): 44.3 nM | TGI (SNB-19 CNS): 20400 nM | GI50 (HOP-62 NSCLC): 77.4 nM | TGI (HOP-62 NSCLC): 68600 nM | GI50 (TK-10 renal): 4510 nM | TGI (TK-10 renal): 49800 nM | GI50 (OVCAR-5 ovarian): 71.4 nM | TGI (OVCAR-5 ovarian): 25400 nM | GI50 (OVCAR-4 ovarian): 2030 nM | TGI (OVCAR-4 ovarian): > 100000 nM | GI50 (SF-539 CNS): 34.8 nM | TGI (SF-539 CNS): 825 nM | GI50 (HT29 colon): 33.3 nM | TGI (HT29 colon): 8600 nM | GI50 (HCT-116 colon): 42.5 nM | TGI (HCT-116 colon): > 35400 nM | GI50 (MALME-3M melanoma): 51 nM | TGI (MALME-3M melanoma): 35100 nM | GI50 (CAKI-1 renal): 41.6 nM | TGI (CAKI-1 renal): 20700 nM | GI50 (SF-295 CNS): 35.2 nM | TGI (SF-295 CNS): 12600 nM | GI50 (NCI/ADR-RES ovarian): 38.1 nM | TGI (NCI/ADR-RES ovarian): 2020 nM | GI50 (SN12C renal): 62.8 nM | TGI (SN12C renal): 29500 nM | GI50 (K-562 leukemia): 38.2 nM
